# US7423017B2, “Method for treating cartilage disorders” (Genentech, Inc., priority 1997, dated 2008)
# Like-named read-outs stand apart in the source and are kept apart here. Starred links: 1 amine or outer side, 2 acyl side, 3 side chain; linkers in the order of their positions; H or OH if unused. Positions of bridges follow the written chain, without caps; N, C: chain ends. Residues, ends and D or L forms follow the SMILES beside them. No end group written: not given here. Suc = O=C(CCC(=O)[*:2])[*:1]
# B1: Ala(1-3)-IGF: triple alanine mutant substituting the first three N-terminal amino acids of IGF-1 (protein)
# chain: AAATLCGAELVDALQFVCGDRGFYFNKPTGYGSSSRRAPQTGIVDECCFRSCDLRRLEMYCAPLKPAKSVSGGGSGSGDFDYEKMANANKGAMTENADENALQSDAKGKLDSVATDYGAAIDGFIGDVSGLANGNGATGDFAGSNSQMAQVGDGDNSPLMNNFRQYLPSLPQSVECRPFVFSAGKPYEFSIDCDKINLFRGVFAFLLYVATFMYVFSTFANILRNKES
# Key:
# [1] = target: T1, IGFBP-3 (Homo sapiens, UniProt P17936); assay: BIACORE competition assay: IGFBP-3 binding to immobilized IGF-1; details: for IC50 (mut) / IC50 (wt): IGF-1 inhibition, wt = BP3-01-ox
# T1 construct: made in house
# Procedure: IGF-1 was immobilized on a dextran chip for inhibition assays using a BIACORE™ 2000 surface-plasmon-resonance device (BIAcore, Inc., Piscataway, N.J.) to measure free binding protein. IGF-1 was biotinylated as described above, and injected over a chip to which streptavidin had been coupled (BIAcore, Inc.) to give 400 to 800 RU (response units) of immobilized IGF-1. […] Serial dilutions of peptide were mixed with a constant concentration (40 nM) of IGFBP-3. After incubation for >1 hour at room temperature, an aliquot of 20 μL was injected at a flow rate of 20 μL/min over the IGF-1 chip. Following the injection, a response reading was taken to measure the relative amount of IGFBP-3 bound to the IGF-1.
# [2] = system: human articular cartilage explants; assay: human articular cartilage explants from diseased joints: matrix synthesis (35S-sulfate uptake); format: cell-based
# Procedure: The metacarpophalangeal joint of a six-month old pig was cultured as described above for bovine articular cartilage in Example 8. This explant was cultured in media alone or in media with D12K, D12R, or wild-type IGF-1 (at 10 nM) alone or in the presence of IL-1α at 1 ng/ml, as described above. Human explants were from patients undergoing joint replacement surgery. Articular cartilage was harvested, aliquoted (40-45 mg/tube) and cultured as above. […] Fresh media was added on days 0, 1, 2, and 3. Matrix breakdown was determined by measuring the amount of proteoglycans in the media using the DMMB assay as set forth above. Matrix (proteoglycan) synthesis was determined by measuring ^35S-sulfate uptake as set forth above.
# Human articular cartilage explants were cultured in media or treated with IGF-1 by itself or in combination with either BP3-40 or BP3-15 at 0.1 mg/ml as set forth above. Matrix breakdown was determined by measuring the release of proteoglycans into media as described above. Matrix synthesis was determined by counting the amount of ^35S-sulfate incorporated into the cartilage tissue as described above.
# The same Material and Methods (for human tissue) were used as described above, using articular cartilage explants from human joints removed from patients undergoing joint replacement. These explants were cultured with IGF-1 alone at 40 ng/ml, or IGF-1 with BP1-17, BP3-15, or BP1-16 (0.1 mg/ml), or IGF-1 with buffer (HEPES).
# [3] = target: T1, IGFBP-3; assay: competitive phage ELISA of IGF-1 mutants, IGFBP-3; format: binding
# Procedure: (§1) An alanine-scanning mutagenesis approach (Cunningham and Wells, Science, 244: 1081-1085 (1989); U.S. Pat. No. 5,834,250) was used to remove that portion of each side chain of IGF-1 beyond the beta carbon. The contribution of these atoms to the free energy of binding of the IGF-1 analog to IGFBP-1 or to IGFBP-3 was then assessed by competitive phage ELISA. In this assay, IGFBP-1 or IGFBP-3 is used to inhibit IGF-phage mutants from binding to an IGFBP-1- or IGFBP-3-coated immunosorbant plate.
# (§2) Immunosorbent plates (Nunc, MAXISORP™, 96 wells) were coated with 100 μl/well of 1 μg/ml IGFBP-1 or IGFBP-3 in PBS buffer pH 7.2 at 4° C. overnight. The plates were then blocked with 0.5% TWEEN 20™/PBS (also used as binding buffer) for 2 hours at room temperature (proteinaceous blocking agents like bovine serum albumin were avoided to prevent potential IGF or IGFBP contamination). E. coli cells (XL1-Blue, Stratagene) freshly transformed with phagemid vector were grown overnight in 5 mL 2YT medium (Sambrook et al., supra) in the presence of M13-VCS helper phage (Stratagene). Phage particles were harvested and resuspended in PBS buffer as described in Lowman, H. B., “Phage Display of Peptide Libraries on Protein Scaffolds,” in Cabilly, S. (ed.), Combinatorial Peptide Library Protocols (Humana Press Inc.: Totowa, N.J., 1998), pp. 249-264. Then phage concentrations were normalized to yield a maximal ELISA signal of 0.2-0.4 for each mutant (Lowman, in Cabilly, S. (ed.), supra). Threefold serial dilutions of soluble competitor were prepared on non-absorbent microtiter plates (Nunc, F, 96 wells) with binding buffer (0.5% TWEEN 20™/PBS) containing phage at the previously determined concentrations. The dilution range of competitor protein extended over six orders of magnitude, starting at 5 μM for IGFBP-1 and 500 nM for IGFBP-3. After blocking, the plates containing immobilized target were washed with 0.05% TWEEN™/PBS buffer and subsequently incubated with 80 μl/well of the premixed phage-competitor solutions for 1 hour at room temperature. After washing, bound phage was detected with 80 μl/well of a solution containing a primary rabbit anti-phage polyclonal antibody and a secondary goat anti-rabbit monoclonal antibody-horseradish peroxidase conjugate in 0.5% TWEEN 20™/PBS. o-Phenylenediamine (Sigma) and tetramethylbenzidine (Kirkegaard and Perry) were used as chromogenic substrates, resulting in product detection at 492 and 450 nm, respectively. IC50 values were determined by fitting the binding data to a generic saturation curve (Lowman, in Cabilly, S. (ed.), supra). At least two individual clones of each IGF-1 mutant were assayed. Numbers in Table XIII represent mean±standard deviation of individually assessed IC50 values.
# [4] = target: T2, IGFBP-1 (Homo sapiens, UniProt P08833); assay: competitive phage ELISA of IGF-1 mutants, IGFBP-1; format: binding; set-up: made in house; host or cells: CHO cells
# T2 sequence (P08833 26-259): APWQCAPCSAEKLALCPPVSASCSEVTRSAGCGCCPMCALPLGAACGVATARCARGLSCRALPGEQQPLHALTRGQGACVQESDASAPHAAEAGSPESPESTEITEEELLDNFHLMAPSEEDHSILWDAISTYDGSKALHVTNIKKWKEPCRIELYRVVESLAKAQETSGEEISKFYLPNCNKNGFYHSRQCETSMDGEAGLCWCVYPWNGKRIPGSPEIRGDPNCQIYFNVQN
# Procedure: as §1, §2
# [5] = target: T2, IGFBP-1; assay: BIACORE kinetics: IGFBP-1 binding to immobilized IGF-1 variants; set-up: made in house; host or cells: CHO cells; details: Table XVI; Y31C immobilized via disulfide linkage
# Procedure: The binding affinities of the IGF variants for IGFBP-1 and IGFBP-3 were determined using a BIACORE™-2000 real time kinetic interaction analysis system (Biacore, Inc., Piscataway, N.J.) to measure association (ka) and dissociation (kd) rates. Carboxymethylated dextran biosensor chips (CM5, BIAcore Inc.) were activated with EDC (N-ethyl-N′-(3-dimethylaminopropyl)-carbodiimide hydrochloride) and NHS(N-hydroxysuccinimide) according to the supplier's instructions. For immobilization, IGF mutants in 20 mM sodium acetate, pH 4.8, were injected onto the biosensor chip at a concentration of 50 μg/ml to yield approximately 450-600 RU's (resonance-responce units) of covalently-coupled protein. Unreacted groups were blocked with an injection of 1 M ethanolamine. Kinetic measurements were carried out by injecting two-fold serial dilutions (starting at 1 μM) of either IGFBP-1 or IGFBP-3 in running buffer (PBS, 0.05% TWEEN 20™, 0.1% ovalbumin, 0.1% sodium azide) at 25 °C using a flow rate of 20 μl/min. Association rates (ka) and dissociation rates (kd) were calculated separately using a 1:1 Langmuir™ association model in the BIACORE™ evaluation software v. 3.0. The equilibrium dissociation constant (KD) was calculated as kd/ka.
# For measurements of IGFBP-1 binding to IGF-1, kinetics experiments were conducted using a single-cysteine IGF-1 variant, Y31C, that was immobilized onto the sensor chip surface via a disulfide linkage (BIACORE™ System Manual Supplement, 5a-1, Pharmacia (1991)).
# [6] = system: IGFBP-1; assay: competitive phage ELISA of IGF-1 mutants, IGFBP-1; format: binding, human; details: relative IC50 IGFBP-1/relative IC50 IGFBP-3
# Procedure: as §1, §2
# [7] = IC50 mut/IC50 G1S-A70V, listed as Ala(1-3)-IGF-1
# T1 sequence (P17936 28-291): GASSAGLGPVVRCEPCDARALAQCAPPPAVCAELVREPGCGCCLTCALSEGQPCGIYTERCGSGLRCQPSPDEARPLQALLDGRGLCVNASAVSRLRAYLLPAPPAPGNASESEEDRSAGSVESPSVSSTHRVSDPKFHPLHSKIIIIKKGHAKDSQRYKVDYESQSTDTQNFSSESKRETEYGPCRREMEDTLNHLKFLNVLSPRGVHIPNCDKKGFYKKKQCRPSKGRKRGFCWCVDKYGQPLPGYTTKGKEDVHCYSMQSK
molecule,measurement,setting,value
CC(C)C[C@@H]1NC(=O)[C@H](Cc2ccc(O)cc2)NC(=O)[C@H](Cc2c[nH]c3ccccc23)NC(=O)[C@H](CCC(=O)O)NC(=O)[C@H](C)NC(=O)[C@H](C(C)C)NC(=O)[C@@H]2CCCN2C(=O)[C@H](Cc2c[nH]c3ccccc23)NC(=O)[C@@H](N)CSSC[C@@H](C(=O)N[C@@H](CC(N)=O)C(=O)O)NC1=O [BP3-25] (H-CWPVAEWYLCN-OH; disulfide 1-10; N-terminus and C-terminus assumed),IC50,[1],46 µM
same,IC50 (mut) / IC50 (wt),[1],23
E3A/F49A: double mutant of IGF-1 combining point mutations E3A and F49A,matrix synthesis in diseased human articular cartilage,[2]; 40 ng/ml,stimulated matrix synthesis in diseased human articular cartilage
CRAGPLQWLCEK-nh2 (CRAGPLQWLCEK-NH2; disulfide 1-10 (inferred)) [BP1-17],"matrix synthesis, IGF-1 in combination with peptide","[2]; IGF-1 40 ng/ml, peptide 0.1 mg/ml",to some extent
WPVAEWYLCN [BP3-24],IC50 (mut) / IC50 (wt),[1],>500
CSCC[C@H](NC(=O)[C@H](CC(N)=O)NC(=O)[C@@H]1CSSC[C@H](NC(=O)[C@@H](N)C(C)C)C(=O)N[C@@H](Cc2c[nH]c3ccccc23)C(=O)N2CCC[C@H]2C(=O)N[C@@H](C(C)C)C(=O)N[C@@H](C)C(=O)N[C@@H](CCC(=O)O)C(=O)N[C@@H](Cc2c[nH]c3ccccc23)C(=O)N[C@@H](Cc2ccc(O)cc2)C(=O)N[C@@H](CC(C)C)C(=O)N1)C(=O)N[C@@H](Cc1c[nH]c2ccccc12)C(=O)NCC(=O)O [BP3-16] (H-VCWPVAEWYLCNMWG-OH; disulfide 2-11; N-terminus and C-terminus assumed),IC50,[1],30 µM
Y31C: point mutant of IGF-1 with a single unpaired cysteinyl thiol for site-specific immobilization,IGFBP-3 IC50,"[3]; phage display, soluble IGFBP-3 competitor",wild-type-like affinities
same,IGFBP-1 IC50,"[4]; phage display, soluble IGFBP-1 competitor",wild-type-like affinities
same,IGFBP-1 ka,[5],3.9 ± 0.4 ×10^4 M^−1
same,IGFBP-1 kd,[5],3.8 ± 0.1 ×10^−4 s^−1
CC[C@H](C)[C@@H]1NC(=O)[C@H](Cc2ccc(O)cc2)NC(=O)CNC(=O)[C@H](CCC(N)=O)NC(=O)[C@H](Cc2c[nH]cn2)NC(=O)[C@H](CCCNC(=N)N)NC(=O)[C@H](CC(=O)O)NC(=O)[C@H](Cc2c[nH]c3ccccc23)NC(=O)[C@@H](NC(=O)[C@@H](NC(=O)[C@H](CCC(=O)O)NC(=O)[C@H](Cc2c[nH]c3ccccc23)NC(=O)[C@H](C)N)C(C)C)CSSC[C@@H](C(=O)N[C@H](C(=O)N[C@H](C(=O)N[C@@H](CC(=O)O)C(=O)N[C@@H](CO)C(=O)O)[C@@H](C)O)[C@@H](C)O)NC1=O [BP3-4D3.11DEL] (H-AWEVCWDRHQGYICTTDS-OH; disulfide 5-14; N-terminus and C-terminus assumed),IC50,[1],80 µM
CC(C)C[C@@H]1NC(=O)[C@H](CC(C)C)NC(=O)[C@H](CC(C)C)NC(=O)[C@H](CC(=O)O)NC(=O)[C@@H]2CCCN2C(=O)[C@H](CCCNC(=N)N)NC(=O)[C@H](C(C)C)NC(=O)[C@H](CC(C)C)NC(=O)[C@H](CCC(N)=O)NC(=O)[C@@H](NC(=O)CCC(=O)O)CSSC[C@@H](C(=O)N[C@@H](CCC(N)=O)C(N)=O)NC1=O [BP3-107] (Suc-CQLVRPDLLLCQ-NH2; disulfide 1-11),IC50,[1]; inhibition of 40 nM IGFBP-3 binding to immobilized IGF-1,100 µM
CSCC[C@H](NC(=O)[C@H](CC(N)=O)NC(=O)[C@@H]1CSSC[C@H](NC(=O)[C@@H](NC(=O)[C@H](CCC(=O)O)NC(=O)[C@H](CCC(=O)O)NC(=O)[C@H](CO)NC(=O)[C@H](C)N)C(C)C)C(=O)N[C@@H](Cc2c[nH]c3ccccc23)C(=O)N2CCC[C@H]2C(=O)N[C@@H](C(C)C)C(=O)N[C@@H](C)C(=O)N[C@@H](CCC(=O)O)C(=O)N[C@@H](Cc2c[nH]c3ccccc23)C(=O)N[C@@H](Cc2ccc(O)cc2)C(=O)N[C@@H](CC(C)C)C(=O)N1)C(=O)N[C@@H](Cc1c[nH]c2ccccc12)C(=O)NCC(=O)N[C@@H](CCCNC(=N)N)C(=O)O [4D3.3P] (H-ASEEVCWPVAEWYLCNMWGR-OH; disulfide 6-15; N-terminus and C-terminus assumed),IC50,[1],5.6 µM
same,IC50 (mut) / IC50 (wt),[1],2.8
B1,relative specificity,[6],7.3
same,IGFBP-3 relative IC50,[3]; [7],no change in IGFBP-3 affinity
same,IGFBP-1 Relative IC50,[4]; [7],decreased IGFBP-1 affinity similar to E3A
